{"source": "paper PMC10366102", "about": "“Dose escalation and expansion cohorts in patients with advanced breast cancer in a Phase I study of the CDK7-inhibitor samuraciclib” (Nature Communications, 2023)", "key": {"pPolII": {"test_system": "pPolII", "assay": "Immunohistochemistry H-score in paired tumor biopsies, pPolII", "format": "in vivo, human", "experimental": "Per-protocol ctDNA samples were taken in Module 1B-1 at screening, C1D1, C2D1 and on D1 of alternating cycles from Cycle 3; in Module 2A at screening, C1D1 and at either C2D1 (240 mg) or C2D15 (360 mg) for mutational analysis[24],[33], (Supplementary Information). pPolII in lymphocytes and pPolII and pCDK1/2/3 in core needle tissue samples from patients recruited to the paired biopsy cohort were evaluated for on-target pharmacodynamic analyses. […]\npharmacodynamic effects in tumor tissue. […]\nvariability in H-score was observed between sections. […]\nH-scores for pre-dose and on-study biopsies and summary statistics for the observed H-score when stained for pCDK1/2/3 and pPolII are shown in Supplementary Table 11. Significance was calculated using Student’s one-tailed paired t-test, where the alternative hypothesis was that on-study samples had"}, "[1]": {"assay": "Module 4 food effect study", "format": "in vivo, human", "experimental": "Carrick Therapeutics CT7001_001, Volume 3, Module 1, Part B-1 (TNBC) […]\nin a test using the whole-cell patch-clamp technique (human embryonic kidney [HEK] cells transfected with hERG), and the CT7001 IC50 in the K+ channel was determined to be greater […]\nCardiovascular toxicity potential was also studied in vivo in dogs. Oral administration of 5, 15, and 20 mg/kg CT7001 had no effect on haemodynamic parameters, ECG parameters, or body temperature in the dog, compared with control article (vehicle) administration.\nEffects of CT7001 on the central nervous system (CNS [Irwin]) and respiratory systems were […]\nCT7001 has low mutagenic potential. At concentrations up to the lower limit of toxicity, it induced no mutations in a five strains Ames test.\n2.3.2 Current Clinical Data of CT7001\nA first-in-human multi-module Phase I/II clinical study commenced in November 2017 […]\nonly clinical study conducted to date.\nThe single- and multiple-ascending dose Phase 1a part of the study (Module 1, Part A) is completed. 33 dosed patients have completed this part of Module 1 (120, 240, 480 mg and a step-down dose level of 360 mg, all taken once daily (OD), and 180 mg given twice a day (BID), all in a fasted state). […]\nModule 4 evaluated the effect of food on CT7001 bioavailability in cancer patients. […]"}, "[2]": {"design": "method as in ref IB", "details": "ref IB, cited from earlier work"}, "CYP3A5": {"test_system": "CYP3A5", "design": "method as in ref IB", "details": "human microsomes; ref IB; cited from earlier work"}, "[3]": {"test_system": "tumour cell lines, including TNBC", "design": "method as in ref Patel et al, 2018 Ainscow et al, 2018; Clark et al, 2017, Ali et al, 2018", "details": "wide range of tumour cell lines, ref Patel et al, 2018 Ainscow et al, Clark et al, 2017, Ali et al; cited from earlier work"}}, "note": "Entries after “also recorded” stand apart in the source; their conditions may differ.", "data": [{"smiles": "CC(C)c1cnn2c(NCc3ccccc3)cc(NC[C@H]3CCNC[C@@H]3O)nc12", "note": "[samuraciclib, Samuraciclib]", "values": [{"measurement": "pPolII H-Score, On study, average", "setting": "pPolII; Average 240mg OD patients, pre-dose 239", "result": 208}, {"measurement": "pPolII H-Score, On study, average", "setting": "pPolII; Average 360mg OD patients, pre-dose 277", "result": 271}, {"measurement": "pPolII H-Score, On study, average", "setting": "pPolII; Average all patients, pre-dose 258", "result": 240}, {"measurement": "pPolII H-Score, On study", "setting": "pPolII; HR+ breast cancer, breast biopsy, 360 mg OD, pre-dose 286", "result": 271}, {"measurement": "pPolII H-Score, On study", "setting": "pPolII; HR+ breast cancer, liver biopsy, 240 mg OD, pre-dose 243", "result": 225}, {"measurement": "pPolII H-Score, On study", "setting": "pPolII; HR+ breast cancer, liver biopsy, 240 mg OD, pre-dose 251", "result": 232}, {"measurement": "pPolII H-Score, On study", "setting": "pPolII; HR+ breast cancer, liver biopsy, 360 mg OD, pre-dose 271", "result": 262}, {"measurement": "pPolII H-Score, On study", "setting": "pPolII; HR+ breast cancer, liver biopsy, 360 mg OD, pre-dose 273", "result": 281}, {"measurement": "pPolII H-Score, On study", "setting": "pPolII; Rhabdomyosarcoma, axilla biopsy, 240 mg OD, pre-dose 223", "result": 167}, {"measurement": "pPolII in tumor tissue", "setting": "pPolII; paired biopsy cohort", "result": "reduction of phosphorylated RNA polymerase II; also recorded: A reduction in pPolII was also seen in tumor tissue"}, {"measurement": "Food effect on exposure or % variability", "setting": "[1]", "result": "no food effect was seen"}, {"measurement": "Oral bioavailability", "setting": "[2]; dog", "result": "good oral bioavailability"}, {"measurement": "Apparent elimination half-life (T½)", "setting": "[2]; dogs", "result": 9.5, "unit": "h"}, {"measurement": "Plasma clearance", "setting": "[2]; dogs", "result": "high"}, {"measurement": "Volume of distribution", "setting": "[2]; dogs", "result": "high volume of distribution"}, {"measurement": "IC50", "setting": "CYP3A5", "result": "> 50", "unit": "µM"}, {"measurement": "Cell growth inhibition", "setting": "[3]", "result": "broad activity"}]}]}
